One test is filed under the species Homo sapiens. The test can be described thus: Inhibition of human P70S6K catalytic domain expressed in baculovirus assessed as substrate phosphorylation using fluorescence-labelled peptides as substrate at 0.06 uM after 90 mins by microfluidic peptide phosphorylation assay.
The target in test [1] is Rho-associated protein kinase 2 (Homo sapiens) (UniProt O75116). The test can be described thus: Inhibition of human ROCK2 catalytic domain expressed in baculovirus assessed as substrate phosphorylation using fluorescence-labelled peptides as substrate at 0.06 uM after 90 mins by microfluidic peptide phosphorylation assay.
Test [2] has as its target T1, Serine/threonine-protein kinase D3 (Homo sapiens) (UniProt O94806).
T1 sequence (whole entry): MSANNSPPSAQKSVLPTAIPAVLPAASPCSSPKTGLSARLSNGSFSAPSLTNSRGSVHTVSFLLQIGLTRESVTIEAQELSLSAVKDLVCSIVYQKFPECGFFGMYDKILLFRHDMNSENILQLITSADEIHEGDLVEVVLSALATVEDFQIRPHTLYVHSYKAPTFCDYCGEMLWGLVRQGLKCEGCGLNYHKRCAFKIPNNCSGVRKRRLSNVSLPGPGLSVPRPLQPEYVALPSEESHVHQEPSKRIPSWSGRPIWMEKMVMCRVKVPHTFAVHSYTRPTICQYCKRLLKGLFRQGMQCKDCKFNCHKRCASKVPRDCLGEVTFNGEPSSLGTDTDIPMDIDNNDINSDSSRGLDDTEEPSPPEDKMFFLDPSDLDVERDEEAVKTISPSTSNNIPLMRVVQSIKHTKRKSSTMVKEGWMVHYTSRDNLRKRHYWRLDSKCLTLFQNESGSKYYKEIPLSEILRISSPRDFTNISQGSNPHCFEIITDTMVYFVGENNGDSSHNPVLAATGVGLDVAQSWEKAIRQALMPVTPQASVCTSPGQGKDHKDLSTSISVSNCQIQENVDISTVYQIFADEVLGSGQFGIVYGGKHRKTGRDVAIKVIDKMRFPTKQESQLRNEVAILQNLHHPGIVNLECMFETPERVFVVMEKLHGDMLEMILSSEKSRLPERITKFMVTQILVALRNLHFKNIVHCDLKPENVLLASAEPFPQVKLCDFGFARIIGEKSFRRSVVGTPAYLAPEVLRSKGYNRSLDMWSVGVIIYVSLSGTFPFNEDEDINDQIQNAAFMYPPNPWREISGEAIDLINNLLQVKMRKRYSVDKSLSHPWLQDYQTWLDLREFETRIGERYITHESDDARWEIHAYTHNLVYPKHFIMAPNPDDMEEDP
The test is described as follows: Inhibition of human full length PKD3 expressed in baculovirus assessed as substrate phosphorylation using fluorescence-labelled peptides as substrate at 0.2 uM after 90 mins by microfluidic peptide phosphorylation assay.

In test [3] the target is T2, Serine/threonine-protein kinase BRSK2 (Homo sapiens) (UniProt Q8IWQ3).
T2 sequence (whole entry): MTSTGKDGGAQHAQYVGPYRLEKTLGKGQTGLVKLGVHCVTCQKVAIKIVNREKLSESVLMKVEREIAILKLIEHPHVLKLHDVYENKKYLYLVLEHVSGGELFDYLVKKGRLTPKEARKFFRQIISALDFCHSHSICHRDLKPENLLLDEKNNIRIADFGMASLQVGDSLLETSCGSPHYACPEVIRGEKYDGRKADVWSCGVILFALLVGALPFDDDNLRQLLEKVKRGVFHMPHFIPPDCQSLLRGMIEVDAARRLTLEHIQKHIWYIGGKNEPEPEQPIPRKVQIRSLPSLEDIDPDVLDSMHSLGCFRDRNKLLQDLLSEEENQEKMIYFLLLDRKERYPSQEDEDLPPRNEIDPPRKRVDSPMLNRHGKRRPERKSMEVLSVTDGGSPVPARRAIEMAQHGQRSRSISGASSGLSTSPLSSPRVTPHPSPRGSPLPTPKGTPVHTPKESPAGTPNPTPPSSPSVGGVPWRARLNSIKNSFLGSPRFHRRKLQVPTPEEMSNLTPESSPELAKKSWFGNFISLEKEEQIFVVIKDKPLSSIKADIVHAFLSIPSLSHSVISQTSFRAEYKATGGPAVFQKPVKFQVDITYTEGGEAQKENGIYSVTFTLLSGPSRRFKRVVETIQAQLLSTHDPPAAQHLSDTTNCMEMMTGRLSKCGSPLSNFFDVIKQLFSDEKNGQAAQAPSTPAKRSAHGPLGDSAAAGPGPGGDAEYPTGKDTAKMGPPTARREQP
The test can be described thus: Inhibition of human truncated BRSK2 expressed in baculovirus assessed as substrate phosphorylation using fluorescence-labelled peptides as substrate at 0.2 uM after 90 mins by microfluidic peptide phosphorylation assay.

Test [4] concerns the target Serine/threonine-protein kinase MARK2 (Homo sapiens) (UniProt Q7KZI7). The test is described as follows: Inhibition of human full length MARK2 expressed in baculovirus assessed as substrate phosphorylation using fluorescence-labelled peptides as substrate at 9 uM after 90 mins by microfluidic peptide phosphorylation assay.
The target of test [5] is Tyrosine-protein kinase HCK (Homo sapiens) (UniProt P08631). The test is described as follows: Inhibition of human HCK catalytic domain expressed in baculovirus assessed as substrate phosphorylation using fluorescence-labelled peptides as substrate at 2 uM after 90 mins by microfluidic peptide phosphorylation assay.
In test [6] the target is T3, Mitogen-activated protein kinase 12 (Homo sapiens) (UniProt P53778).
T3 sequence (whole entry): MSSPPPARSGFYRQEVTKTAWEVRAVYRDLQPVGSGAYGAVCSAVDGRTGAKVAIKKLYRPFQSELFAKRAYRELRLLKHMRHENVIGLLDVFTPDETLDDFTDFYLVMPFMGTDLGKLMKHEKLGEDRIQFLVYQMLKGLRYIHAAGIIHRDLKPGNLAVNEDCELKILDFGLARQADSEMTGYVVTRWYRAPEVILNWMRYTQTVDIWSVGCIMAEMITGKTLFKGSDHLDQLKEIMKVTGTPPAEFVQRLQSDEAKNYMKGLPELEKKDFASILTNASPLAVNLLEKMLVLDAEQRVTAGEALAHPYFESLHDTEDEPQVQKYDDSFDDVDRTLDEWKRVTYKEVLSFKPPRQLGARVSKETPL
The test is described as follows: Inhibition of human full length p38 gamma expressed in Escherichia coli cell assessed as substrate phosphorylation using fluorescence-labelled peptides as substrate at 95 uM after 90 mins by microfluidic peptide phosphorylation assay.

Sequence of Serine/threonine-protein kinase MARK2 (Homo sapiens) (Q7KZI7 whole entry, the tested form may be a part): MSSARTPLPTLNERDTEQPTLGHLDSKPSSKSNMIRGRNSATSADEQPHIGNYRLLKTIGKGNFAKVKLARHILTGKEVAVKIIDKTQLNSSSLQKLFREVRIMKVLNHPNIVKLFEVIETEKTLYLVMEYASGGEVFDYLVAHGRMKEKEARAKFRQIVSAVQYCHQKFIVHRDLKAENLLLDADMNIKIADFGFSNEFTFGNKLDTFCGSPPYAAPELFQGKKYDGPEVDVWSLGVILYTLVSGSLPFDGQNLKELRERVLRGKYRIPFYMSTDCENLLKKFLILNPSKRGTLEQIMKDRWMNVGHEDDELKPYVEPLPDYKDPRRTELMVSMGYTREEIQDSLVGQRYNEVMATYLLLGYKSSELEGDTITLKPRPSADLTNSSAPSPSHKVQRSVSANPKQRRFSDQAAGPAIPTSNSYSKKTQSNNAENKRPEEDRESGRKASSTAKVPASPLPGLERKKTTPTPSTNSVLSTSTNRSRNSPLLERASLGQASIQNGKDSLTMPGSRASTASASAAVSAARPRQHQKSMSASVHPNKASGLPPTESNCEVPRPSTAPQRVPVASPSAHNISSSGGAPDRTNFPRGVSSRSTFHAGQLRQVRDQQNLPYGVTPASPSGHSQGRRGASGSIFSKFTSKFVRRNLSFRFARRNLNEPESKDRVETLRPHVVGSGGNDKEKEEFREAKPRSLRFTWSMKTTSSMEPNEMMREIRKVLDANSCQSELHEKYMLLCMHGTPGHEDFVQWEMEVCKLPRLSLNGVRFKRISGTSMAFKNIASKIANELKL
Sequence of Tyrosine-protein kinase HCK (Homo sapiens) (P08631 2-526 limits assumed): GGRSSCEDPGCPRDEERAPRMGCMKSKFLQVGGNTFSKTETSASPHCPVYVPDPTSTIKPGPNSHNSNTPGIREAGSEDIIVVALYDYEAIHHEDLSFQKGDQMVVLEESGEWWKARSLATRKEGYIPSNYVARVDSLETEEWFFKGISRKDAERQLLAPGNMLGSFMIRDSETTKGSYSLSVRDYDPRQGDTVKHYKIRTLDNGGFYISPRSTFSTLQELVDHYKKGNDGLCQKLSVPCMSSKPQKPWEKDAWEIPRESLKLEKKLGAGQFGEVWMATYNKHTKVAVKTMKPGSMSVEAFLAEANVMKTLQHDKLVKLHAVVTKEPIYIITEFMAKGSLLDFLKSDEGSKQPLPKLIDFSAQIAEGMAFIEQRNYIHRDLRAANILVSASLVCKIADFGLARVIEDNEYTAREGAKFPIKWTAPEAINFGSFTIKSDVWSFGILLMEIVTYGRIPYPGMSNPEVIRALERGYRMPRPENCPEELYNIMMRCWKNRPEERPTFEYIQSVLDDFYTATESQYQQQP
Sequence of Rho-associated protein kinase 2 (Homo sapiens) (O75116 whole entry, looked up, the tested form may be a part): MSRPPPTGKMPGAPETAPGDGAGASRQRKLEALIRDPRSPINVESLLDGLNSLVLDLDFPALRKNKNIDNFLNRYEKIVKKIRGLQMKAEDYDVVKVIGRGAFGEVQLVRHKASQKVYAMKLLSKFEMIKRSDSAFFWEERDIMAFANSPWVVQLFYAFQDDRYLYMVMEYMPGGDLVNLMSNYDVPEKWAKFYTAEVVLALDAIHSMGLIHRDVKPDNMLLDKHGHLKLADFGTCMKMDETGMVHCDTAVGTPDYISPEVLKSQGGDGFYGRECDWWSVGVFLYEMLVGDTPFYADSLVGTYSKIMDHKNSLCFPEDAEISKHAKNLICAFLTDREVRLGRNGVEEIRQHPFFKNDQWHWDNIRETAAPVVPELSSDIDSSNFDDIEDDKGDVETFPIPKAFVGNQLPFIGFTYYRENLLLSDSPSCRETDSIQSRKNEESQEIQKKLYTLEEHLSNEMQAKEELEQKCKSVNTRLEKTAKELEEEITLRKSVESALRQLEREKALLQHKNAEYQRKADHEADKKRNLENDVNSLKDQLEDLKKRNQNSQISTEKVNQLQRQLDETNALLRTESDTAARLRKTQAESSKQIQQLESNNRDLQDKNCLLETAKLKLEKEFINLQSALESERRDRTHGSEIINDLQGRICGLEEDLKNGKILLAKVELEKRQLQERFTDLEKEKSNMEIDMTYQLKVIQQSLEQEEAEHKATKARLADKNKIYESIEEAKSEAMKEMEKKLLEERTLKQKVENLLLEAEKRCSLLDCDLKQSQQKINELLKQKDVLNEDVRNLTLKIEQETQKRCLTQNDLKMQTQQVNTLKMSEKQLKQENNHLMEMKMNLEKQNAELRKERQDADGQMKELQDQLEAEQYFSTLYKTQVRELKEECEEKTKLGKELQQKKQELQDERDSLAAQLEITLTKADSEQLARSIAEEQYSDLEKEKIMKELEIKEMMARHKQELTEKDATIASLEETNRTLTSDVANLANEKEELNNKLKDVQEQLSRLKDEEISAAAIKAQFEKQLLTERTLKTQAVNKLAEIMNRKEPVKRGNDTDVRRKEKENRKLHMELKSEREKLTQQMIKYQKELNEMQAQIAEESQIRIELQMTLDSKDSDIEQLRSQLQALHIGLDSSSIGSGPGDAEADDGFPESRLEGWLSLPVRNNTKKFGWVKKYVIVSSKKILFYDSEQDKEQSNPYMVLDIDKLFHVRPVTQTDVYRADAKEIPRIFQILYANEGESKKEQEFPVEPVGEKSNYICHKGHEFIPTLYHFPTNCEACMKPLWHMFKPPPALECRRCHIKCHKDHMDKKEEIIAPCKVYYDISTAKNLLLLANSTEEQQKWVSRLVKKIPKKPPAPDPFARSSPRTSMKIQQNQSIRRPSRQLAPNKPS

As to `NC1(Cc2ccc(Cl)cc2)CCN(c2ncnc3[nH]ccc23)CC1`, the inhibition (in the test listed under Homo sapiens; in test [1]) was 0% in each case.

With `Clc1ccc(C2(c3ccc(-c4ncnc5[nH]cnc45)cc3)CCNCC2)cc1`, the inhibition in test [2] was determined as 12.5%; in test [3] it was 13%.

For the compound `NCC1CN(c2ncnc3[nH]c4cnccc4c23)CCO1` (configuration not stated), the inhibition in test [4] was 73%.

Regarding `NC1CCN(c2ncnc3[nH]ccc23)CC1`, the inhibition in test [5] came to 3%.

With `NCCc1ccc(-c2ncnc3[nH]cnc23)cc1`, the inhibition in test [6] was found to be 13%.

The inhibition is the change of the read-out against control, counted positive when it falls.

The values above are taken from ChEMBL document CHEMBL3132769, “Fragment growing to retain or alter the selectivity of anchored kinase hinge-binding fragments” (Medchemcomm, 2014).
